One test concerns Botrytis cinerea. Kind of test: Botrytis cinerea (Gray mould) liquid culture growth inhibition, microtiter plate. The test is classed as cell-based. As to conditions: single compound, 72 hrs, 24 C, read-out: Observed Activity (%). Here is the method:
Botrytis cinerea (Gray Mould): Conidia of the fungus from cryogenic storage were directly mixed into nutrient broth (PDB potato dextrose broth). A DMSO solution of the test compounds was placed into a microtiter plate (96-well format) and the nutrient broth containing the fungal spores was added to it. The test plates were incubated at 24 C and the inhibition of growth was determined photometrically after 72 hrs.

The subject of the next test is Phakopsora pachyrhizi. In words: Phakopsora pachyrhizi (Soybean rust) soybean leaf disk preventive fungicidal activity. The test is classed as in vivo. As to conditions: single compound, approx. 12 dpi; for inhibition at 1 g/ha / inhibition at 3 g/ha: Phakopsora pachyrhizi, foliar, read-out: Observed Activity (%). As to the method:
Phakopsora pachyrhizi (Soybean Rust): Soybean leaf disks are placed on agar in multiwell plates (24-well format) and sprayed with test solutions. After drying, the leaf disks are inoculated with a spore suspension of the fungus. After appropriate incubation the activity of a compound is assessed approx. 12 dpi (days after inoculation) as preventive fungicidal activity.

The subject of another test is Septoria tritici. Kind of test: Septoria tritici (Leaf blotch) liquid culture growth inhibition, microtiter plate. As to conditions: single compound, 72 hrs, 24 C. The test is classed as cell-based. As to the method:
Septoria tritici (Leaf Blotch): Conidia of the fungus from cryogenic storage were directly mixed into nutrient broth (PDB potato dextrose broth). A DMSO solution of the test compounds was placed into a microtiter plate (96-well format) and the nutrient broth containing the fungal spores was added to it. The test plates were incubated at 24 C and the inhibition of growth was determined photometrically after 72 hrs.

Test [1] relates to Mycosphaerella arachidis syn. Cercospora arachidicola. In words: Mycosphaerella arachidis syn. Cercospora arachidicola (Brown leaf spot of peanut) liquid culture growth inhibition. The test is classed as cell-based. As to conditions: single compound, approximately 5-6 days, 24 C, read-out: Observed Activity (%). As to the method:
Mycosphaerella arachidis syn. Cercospora arachidicola (Brown Leaf Spot of Peanut): Conidia of the fungus from cryogenic storage were directly mixed into nutrient broth (PDB potato dextrose broth). A DMSO solution of the test compounds was placed into a microtiter plate (96-well format) and the nutrient broth containing the fungal spores was added to it. The test plates were incubated at 24 C and the inhibition of growth was determined photometrically after approximately 5-6 days at 620nm

Setting [2] is: Zymoseptoria tritici, read-out: Observed Activity (%).

Several values for one entry are separate records, joined by “and”; a condition that tells them apart may be missing. Identical values can stand only once.

Regarding `Fc1ccccc1C1(Nc2ncc(-c3nnc(C(F)F)o3)cn2)CC1` [Compound A-1.4, 5-[5-(difluoromethyl)-1,3,4-oxadiazol-2-yl]-N-[1-(2-fluorophenyl)cyclopropyl]pyrimidin-2-amine], in the test with Botrytis cinerea, the inhibition at 10 ppm was found to be 20% and the inhibition at 20 ppm came out at 20%. Besides, in the test on Phakopsora pachyrhizi (1 g a.i./ha), the inhibition at 1 g/ha was determined as 12% and the “Observed Activity (%)” value worked out at 16%. Further, in the test on Phakopsora pachyrhizi (3 g a.i./ha), the inhibition at 3 g/ha is 43% and the “Observed Activity (%)” value is given as 45%. Besides, in the test on Septoria tritici (setting [2]), the inhibition at 10 ppm was determined as 20% and the inhibition at 20 ppm was 20%.

For `CCOC(=O)c1cnn(Cc2ccc(O/C=C(\OCC)C(F)(F)F)cc2)c1` [ethyl 1-[[4-[(Z)-2-ethoxy-3,3,3-trifluoro-prop-1-enoxy]phenyl]methyl]pyrazole-4-carboxylate, reference compound], in the test with Botrytis cinerea, the inhibition at 6.66 ppm was 20% and the inhibition at 20 ppm turned out to be 20%. In addition, in the test with Phakopsora pachyrhizi (1 g a.i./ha), the inhibition at 1 g/ha worked out at 38%. For the same molecule, the inhibition at 3 g/ha with Phakopsora pachyrhizi (3 g a.i./ha) is 56%. Also, the inhibition at 20 ppm in the test with Septoria tritici (setting [2]) amounted to 20%.

For the molecule `COC(=O)NCc1cc(-c2ccn(-c3c(F)cc(C4CC4)cc3F)n2)ccc1C` [methyl N-[[5-[1-(4-cyclopropyl-2,6-difluoro-phenyl)pyrazol-3-yl]-2-methyl-phenyl]methyl]carbamate, reference compound], in the test on Botrytis cinerea (0.0074 ppm), the inhibition at 0.0074 ppm was 0%. For the same molecule, in the test with Botrytis cinerea (0.022 ppm), the inhibition at 0.022 ppm worked out at 50%. Further, the inhibition at 0.00246 ppm in test [1] (0.00246 ppm) is 20%. Besides, the inhibition at 1 g/ha with Phakopsora pachyrhizi (1 g a.i./ha) worked out at 12%. In the test on Phakopsora pachyrhizi (3 g a.i./ha), the inhibition at 3 g/ha is 54%. For the same molecule, the inhibition at 0.0008 ppm in the test with Septoria tritici (Zymoseptoria tritici, 0.0008 ppm, read-out: Observed Activity (%)) is 20%.

In the case of `Fc1cccc(F)c1C1(Nc2ncc(-c3nnc(C(F)F)o3)cn2)CC1` [Compound A-1.3, 5-[5-(difluoromethyl)-1,3,4-oxadiazol-2-yl]-N-[1-(2,6-difluorophenyl)cyclopropyl]pyrimidin-2-amine], the inhibition at 10 ppm (in the test on Botrytis cinerea; in test [1] (10 ppm); in the test with Septoria tritici (setting [2])) was 20% throughout. Moreover, the inhibition at 20 ppm (in the test on Botrytis cinerea; in test [1] (20 ppm); in the test with Septoria tritici (setting [2])) was 20% in each case. The inhibition at 3 g/ha in the test on Phakopsora pachyrhizi (3 g a.i./ha) amounted to 47%. Besides, the “Observed Activity (%)” value in the test with Phakopsora pachyrhizi (1 g a.i./ha) is 5% and 1%.

Regarding `CCOC(=O)c1cnn(Cc2ccc(OCC3(C(F)(F)F)OCCO3)cc2)c1` [ethyl 1-[[4-[[2-(trifluoromethyl)-1,3-dioxolan-2-yl]methoxy]phenyl]methyl]pyrazole-4-carboxylate], in the test on Botrytis cinerea, the inhibition at 6.66 ppm was found to be 0% and the inhibition at 20 ppm came to 0%. For the same molecule, in the test with Phakopsora pachyrhizi (1 g a.i./ha), the inhibition at 1 g/ha amounted to 35%.

Regarding `Fc1cccc(F)c1C1(Oc2ncc(-c3nnc(C(F)F)o3)cn2)CC1` [Compound A-1.2, 2-(difluoromethyl)-5-[2-[1-(2,6-difluorophenyl)cyclopropoxy]pyrimidin-5-yl]-1,3,4-oxadiazole], the “Observed Activity (%)” value is 0% and 9% in the test with Phakopsora pachyrhizi (1 g a.i./ha); 4% and 0% in the test on Phakopsora pachyrhizi (3 g a.i./ha); 5% in the test with Phakopsora pachyrhizi (6 g a.i./ha). Moreover, in the test with Septoria tritici (setting [2]), the inhibition at 10 ppm was 0%. The inhibition at 20 ppm in the test with Septoria tritici (setting [2]) worked out at 0%.

“1-(2,6-difluoro-4-isopropyl-phenyl)pyrazole; methyl N-[(2,5-dimethylphenyl)methyl]carbamate [reference compound]”: the “Observed Activity (%)” value in the test on Phakopsora pachyrhizi (1 g a.i./ha) is listed as 3%; with Phakopsora pachyrhizi (3 g a.i./ha), 65%; in the test with Septoria tritici (0.0008 ppm), 20%; in the test with Septoria tritici (0.00246 ppm) it was 70%.

The values are drawn from patent US20260020566A1, “FUNGICIDAL COMPOSITIONS” (SYNGENTA CROP PROTECTION AG, priority 2022, published 2026).
